Like-named read-outs stand apart in the source and are kept apart here.
Tests used:
cytotoxic T lymphocytes = format: in vivo, C57BL/6 mice; conditions: mice infected in the footpad with LCMV-WE; swelling after seven to eight days
LCMV = format: in vivo, mice; conditions: day D8; 200 pfu LCMV i.v.
[1] = tested on: ubiquitin proteasome pathway; experiment: Degradation of the proteins with a short lifespan (35S pulse-chase); format: cell-based; conditions: cells cultured overnight with variable concentration
Experimental: For these analyses, the cells were cultured overnight in the presence of a variable concentration of ritonavir, preincubated in a medium free of methionine and cysteine for 1 hour, subjected to labelling with ^35S-methionine and ^35S-cysteine for one hour, washed in PBS and subjected to a chase for one hour. After one hour, TCA (trichloroacetic acid at 10% final) was added to the supernatant and the radioactivity of the supernatant not precipitated with TCA was quantified with a Lumaplate (Topcount Packard) (FIG. 4A).

[2] = biological target: T1, 20S proteasomes isolated from murine B8 fibroblasts (Mus musculus, UniProt O55234+P70195+Q60692); experiment: Hydrolysis of fluorogenic substrates by isolated 20S proteasomes; format: biochemical
T1 construct: 20S proteasomes isolated from murine B8 fibroblasts; endogenous in cells; host or cells: murine B8 fibroblasts; 20S proteasome purified from the cells
Experimental: FIGS. 4B, 4C and 4D show the hydrolysis of the fluorogenic substrate (100 μM Suc-LLVY-MCA, 100 μM (Z)-GGL-MCA and 400 μM Bz-VGR-MCA) of the 20S proteasomes isolated from murine B8 fibroblasts, as a function of variable concentrations of ritonavir and of LLnL (N-acetyl-L-leucinyl-L-leucinal-L-norleucinal, known inhibitor of the proteasome). The results are reported for one hour of digestion with the 20S proteasome (500 ng) in a final volume of 100 μl. The values were located in a linear detection domain and are the mean values of triplicates with standard errors of less than 3%.
The hydrolysis of Suc-LLVY-MCA by the 20S murine proteasomes was tested according to the method described in Example 4.2. under identical conditions except for the fact that a different batch of purified proteasomes was used. The hydrolysis of Suc-LLVY-MCA was measured in the presence of increasing concentrations of ritonavir, nelfinavir (Roche), saquinavir (mesylate) and indinavir (active ingredient of Crixivan® marketed by Merck and Sharp and Dohme). The HIV protease inhibitors were dissolved beforehand in ethanol, methanol, DMSO and water respectively, for use in vitro (FIG. 4E).

Hybridoma (MHC-I) = experiment: IL-2 release by hybridoma FT6.9 cocultured with NOD pancreatic islets; format: cell-based, NOD mice
Experimental: (§1) Ritonavir (0.6 mg per 10 g of body weight per day) or a placebo (phosphate buffer PBS) was administered by the intraperitoneal route to NOD mice. The pancreatic islets were removed and cultured for 24 hours in the presence or in the absence of 2.5 μg/ml of ritonavir. The cells were then cocultured with MHC-1-restricted hybridomas (FT6.9 and FT7.9 for 24 hours). The quantity of IL-2 was assayed in the supernatant. The following tables present the quantities of IL-2 measured by a test of proliferation (cpm×10^−3).

Hybridoma ETG.9 (MHC-I) = experiment: as above; format: cell-based, NOD mice
Experimental: as §1

[3] = Experimental allergic encephalitis in rats; format: in vivo, Lewis rats; design: key to clinical score of EAE: 1: weakness of the movements of the tail; 2: incomplete paralysis of the hindquarters; 3: complete paralysis of the hindquarters; 4: incomplete paralysis of the forequarters; 5: total immobility
Experimental: Experimental allergic encephalitis in rats is the only model of multiple sclerosis in humans. The guinea pig MBP (Myelin Basic Protein) is administered to 7-week old female Lewis rats by a subcutaneous injection, into the footpad, of 50 μg of MBP in 100 μl of complete Freund's adjuvant supplemented with 4 μg/ml of mycobacteria. There are administered, in addition, to these rats, daily, either 1 mg, 5 mg or 10 mg of ritonavir, per animal, or a placebo (phosphate buffer) of MBP injection until the animals not treated with ritonavir are killed. The clinical scores measuring the progression of the experimental allergic […] following: 1: weakness of the movements of the tail; 2: incomplete paralysis of the hindquarters; 3: complete paralysis of the hindquarters; 4: incomplete paralysis of the forequarters; and 5: total immobility. About eight days after this immunization with MBP, the control rats started to show the first stages of paralysis (temporary) due to the immune response caused by the administration of myelin.

hepatitis C virus = experiment: Clinical case: patient doubly infected with HIV and HCV treated with ritonavir; format: in vivo, human
Source text: A patient who is a drug addict is monitored for a double infection with HIV and HCV, discovered in 1986 but undoubtedly prior to this date. The progression of the HIV infection is slow, with a viremia established at around 4 Log HIV RNA copies/ml. The level of CD4 T lymphocytes dropped with a first opportunistic lung infection. […] An HIV protease inhibitor, ritonavir, was introduced into the therapy of the patient and followed since then. The HIV viremia became undetectable during the two months which followed the beginning of the treatment before returning to the previous level from the fourth month. The level of CD4 T lymphocytes increased during this period and continued to increase even after the reappearance of the HIV viremia. By contrast, the HCV viremia became negative at the 7th month after the introduction of ritonavir (FIG. 7), and has remained so two years later.

[4] = tested on: M113 cells presenting the MART-1 antigen; experiment: Proliferation of M77-84 T lymphocytes stimulated by treated M113 cells
[5] = 100 μM substrate, one hour digestion, 500 ng 20S proteasome
[6] = in vivo PBS, in vitro ritonavir 2.5 μg/ml
[7] = in vivo ritonavir, in vitro PBS
[8] = in vivo ritonavir, in vitro ritonavir
[9] = patients with hepatic cytolysis (cytolysis +)
[10] = patients without hepatic cytolysis (cytolysis −)

CC(C)c1nc(CN(C)C(=O)N[C@H](C(=O)N[C@@H](Cc2ccccc2)C[C@H](O)[C@H](Cc2ccccc2)NC(=O)OCc2cncs2)C(C)C)cs1 [ritonavir]
swelling of the footpad after injection of LCMV (cytotoxic T lymphocytes): markedly inhibited
viral clearance (titre of viruses in the spleen) (LCMV): decrease in the viral clearance
degradation of proteins with a short lifespan [1]: inhibits in a dose-dependent manner
hydrolysis of the fluorogenic substrate Suc-LLVY-MCA [2, 5]: potent inhibitor
hydrolysis of the substrate (Z)-GGL-MCA [2, 5]: hardly affected
cleavage of the substrate Bz-VGR-MCA ("trypsin" type activity) ([2]; 400 μM substrate, one hour digestion, 500 ng 20S proteasome): substantially increased
"chimotrypsin-like" activity (hydrolysis of Suc-LLVY-MCA), comparison of four HIV-1 protease inhibitors ([2]; different batch of purified proteasomes, increasing concentrations): inhibits
"chymotrypsin-like" activity of the proteasome ([2]; summary statement): inhibited
"trypsin" activity of the proteasome ([2]; summary statement): increased
percentage in brackets (reduction of IL-2 versus PBS/PBS) (Hybridoma (MHC-I); [6]): 37%
percentage in brackets (reduction of IL-2 versus PBS/PBS) (Hybridoma (MHC-I); [7]): 47%
percentage in brackets (reduction of IL-2 versus PBS/PBS) (Hybridoma (MHC-I); [8]): 31%
recognition ex vivo of Langerhan's cells by cytotoxic T clones (Hybridoma ETG.9 (MHC-I); cells isolated from NOD mice treated with ritonavir, statement covers both hybridomas): no longer recognized
quantity of IL-2 measured by a test of proliferation (Hybridoma ETG.9 (MHC-I); [6]): 40 cpm×10^−3
quantity of IL-2 measured by a test of proliferation (Hybridoma ETG.9 (MHC-I); [7]): 34 cpm×10^−3
quantity of IL-2 measured by a test of proliferation (Hybridoma ETG.9 (MHC-I); [8]): 44 cpm×10^−3
clinical score of EAE ([3]; other rats treated with 10 mg per animal daily): 1
development of the disease (EAE) ([3]; rats treated with 10 mg per animal daily): two did not develop the disease
appearance of the first signs of paralysis ([3]; rats treated with 1 and 5 mg per animal daily): delayed
HCV viremia (hepatitis C virus; at the 7th month after introduction of ritonavir, remained so two years later): negative
HIV viremia (hepatitis C virus; during the two months after beginning of treatment, returned to previous level from the fourth month): undetectable
level of CD4 T lymphocytes (hepatitis C virus; one patient, during treatment): increased
presentation of MART-1 antigen: proliferation of M77-84 T lymphocytes ([4]; M113 cells cultured 24 hours with 0.1-5 μg/ml, proliferation after 48 hours): inhibition
inhibition of proliferation ([4]; antigen presenting cells cultured in sera of HIV-negative volunteers obtained 3 hours after a single oral dose of 500 mg): Up to 70%
anti-HCV antibody titre (HCV; during the therapy): increases only in the patients exhibiting cytolysis
patients in whom the ALAT concentrations increased (HCV; patients coinfected with HCV and HIV): 57%
Ac index (variation of anti-HCV antibody titre, ratio of the optical densities) (HCV; [9]): 2.19(+/−1.68)
variation of CD4 (HCV; [9]): 109.4(+/−113) cells /mm^3
variation of CD8 (HCV; [9]): 203.6(+/−650) cells /mm^3
variation of HCV-VL (viral HCV load) (HCV; [9]): +0.61 log10 of copies of RNA/ml
variation of HCV-VL (viral HCV load) (HCV; patients with hepatic cytolysis (cytolysis +), listed as RTN): 0.61(+/−0.3) log10 of copies of RNA/ml
Ac index (variation of anti-HCV antibody titre, ratio of the optical densities) (HCV; [10]): 0.98(+/−0.24)
variation of CD4 (HCV; [10]): 88.3(+/−170) cells /mm^3
variation of CD8 (HCV; [10]): 281.8(+/−394) cells /mm^3
variation of HCV-VL (viral HCV load) (HCV; [10]): +0.22 log10 of copies of RNA/ml
variation of HCV-VL (viral HCV load) (HCV; patients without hepatic cytolysis (cytolysis −), listed as RTN): 0.22(+/−0.35) log10 of copies of RNA/ml
ALAT concentration peak, mean maximum value (HCV; ritonavir group, third month): 418 IU/1
ALAT concentration peak, variation (HCV; ritonavir group, third month): 96-1570 IU/1

Source: patent US6506555B1, “Use of HIV protease inhibiting compounds” (Institut National de la Sante et de la Recherche Medicale …, priority 1998, dated 2003)
